Measurements reported in patent US6784192B2, “Piperidine compound and pharmaceutical composition thereof” (Eisai Co., Ltd., priority 2000, dated 2004).

What was measured:
[1] = test system: atrial fibrillation (AF) in anesthetized thoracotomy dog; assay: Effect of termination and prevention of atrium fibrillation (AF) in anesthetized thoracotomy dog; type: in vivo; conditions: samples with effect / samples tested
Source text: (1) An anesthetized thoracotomy dog was used for the present experiment. After opening brisket at a median line and cutting epicardium, bipolar electrodes for determination of a potential wave form were respectively stitched at the free walls of right and left atriums. Further, a wire electrode was inserted in the free wall of a right atrium to be fixed and used for electrical simulation. After cutting cervix at a median line, right and left vagal nerves were peeled. Wire electrodes for stimulating vagal nerves were inserted along the surface layers of the respective both sides to be fixed and used as stimulation for vagal nerves.
(2) Electrical stimulation was carried out under conditions: a stimulation duration of 0.1 mess; a x stimulation frequency of 20 Hz; and a stimulation intensity of 3 to 7 V. After 5 minutes of the start of the stimulation, high frequency stimulation (10 Hz, 1 sec) was applied to the right atrium, and the induction of atrial fibrillation (hereinafter, abbreviated as “AF”) was tried. The stimulation intensity of high frequency stimulation of the right atrium was carried out from 1.0 V, and when AF was not induced, induction was tried by increasing the stimulation intensity to 5.0 V. After AF was induced, observation for 30 minutes was carried out, it was confirmed that AF is kept (control experiment). Further, when AF induced was not kept for 30 minutes, the experiment was stopped.
(3) After confirming that AF was kept for 30 minutes or more in the control experiment, the stimulation of vagal nerve was intercepted, and the dog was rested for about one hour to be recovered. After that, similarly, AF was induced again. Further, the stimulation of vagal nerve at this time was carried out at the higher stimulation intensity by about 2 V than at the control experiment. After 5 minutes of the induction of AF, the administration of a tested substance was carried out. The tested substance was administered intravenously over 5 minutes. After completion of the administration, observation was carried out for 5 minutes, and when the termination of AF was not observed, the dose was increased and the observation was similarly carried out. When AF was stopped, the induction of AF was tried again just after termination. At this time, when AF which was continued for one minute or more was induced again, it was judged as no effect of prevention, and experiment was similarly carried out by increasing the dose.
In the Table, the number of the denominator indicates the number of the sample used for test, and the number of the numerator indicates the number of the sample in which the effect was confirmed.

[2] = test system: atrial muscle of anesthetized thoracotomy dog; assay: Effective refractory period (ERP) in anesthetized thoracotomy dog; type: in vivo; conditions: for Measurement Value of ERP: mean
Source text: (1) An anesthetized thoracotomy dog was used for the present experiment. After opening brisket at a median line and cutting epicardium, bipolar electrodes for determination of a potential wave form were respectively stitched at the free walls of right and left atriums. Further, a wire electrode was inserted in the free wall of a right atrium to be fixed and used for electrical simulation.
(2) A program electrical stimulation equipment was connected with the electrode for electrical stimulation at the right atrium, the electrical stimulation was carried out at a stimulation periodical length of 500 mess, and a threshold for the electrical stimulation was measured. The electrical stimulation intensity for the experiments below was set to carry out stimulation at 3-fold of this threshold. However, when the threshold was 0.7 V or less, the electrical stimulation was carried out at 2.0 V. Effective refractory period (ERP) provided early premature stimulation (S2) after the basic stimulation (S1) of 10 times, and the longest linking period in which atrium potential was not generated by the premature stimulation was referred to as ERP, while shortening the linking period (S1-S2) by 5 mess. Similar experiments were also carried out for the respective basic stimulation length (BCL) of 400, 300, 250 and 200 mess (control experiment: 1 series). After carrying out 2 times or more of the control experiments and confirming that ERP was stable, the tested substance was subsequently administered, and similar measurement was carried out. After the tested substance was administered once intravenously for 5 minutes, its keeping dose was subsequently administered intravenously. After 10 minutes of the administration start of the keeping dose, ERP was measured in the respective stimulation frequency. After completion of the one series of measurements, the concentration of the tested substance was increased and the similar experiments were repeated. The ERP and conduction time in the atrium in the respective stimulation frequency were compared with various indices under control condition. The result is shown by mean.

With `CS(=O)(=O)c1ccsc1CCC1CCN(Cc2ccc[nH]c2=O)CC1` [Example 135, 1-[(2-Oxo-1,2-dihydro-3-pyridinyl)methyl]-4-[2-(3-methylsulfonyl-2-thienyl)ethyl]piperidine] the the termination effect ([1]; dose 0.3 mg/kg intravenously over 5 minutes) was 1/3, the the prevention effect ([1]; dose 0.3 mg/kg intravenously) was 1/1 and the the termination effect ([1]; dose 1 mg/kg intravenously over 5 minutes) was 2/2. For the same compound, the the prevention effect ([1]; dose 1 mg/kg intravenously) was 2/2, the “Measurement Value of ERP” value ([2]; dose 0.1 mg/kg intravenously, BCL 200 msec) was 125.0 ms and the “Measurement Value of ERP” value ([2]; dose 0.1 mg/kg intravenously, BCL 250 msec) was 138.3 ms. For the same compound, the “Measurement Value of ERP” value ([2]; dose 0.1 mg/kg intravenously, BCL 300 msec) was 155.0 ms, the “Measurement Value of ERP” value ([2]; dose 0.1 mg/kg intravenously, BCL 400 msec) was 170.0 ms and the “Measurement Value of ERP” value ([2]; dose 0.1 mg/kg intravenously, BCL 500 msec) was 178.3 ms. For the same compound, the “Percent change in ERP versus pre-dose control” value (from here on “Percent change”) ([2]; dose 0.1 mg/kg, BCL 200 msec) was 7.1%, the “Percent change” value ([2]; dose 0.1 mg/kg, BCL 250 msec) was 3.9% and the “Percent change” value ([2]; dose 0.1 mg/kg, BCL 300 msec) was 5.7%. For the same compound, the “Percent change” value ([2]; dose 0.1 mg/kg, BCL 400 msec) was 3.0%, the “Percent change” value ([2]; dose 0.1 mg/kg, BCL 500 msec) was 3.1% and the “Measurement Value of ERP” value ([2]; dose 0.3 mg/kg intravenously, BCL 200 msec) was 138.3 ms. The “Measurement Value of ERP” value ([2]; dose 0.3 mg/kg intravenously, BCL 250 msec) was 150.0 ms, the “Measurement Value of ERP” value ([2]; dose 0.3 mg/kg intravenously, BCL 300 msec) was 166.7 ms and the “Measurement Value of ERP” value ([2]; dose 0.3 mg/kg intravenously, BCL 400 msec) was 181.7 ms. The “Measurement Value of ERP” value ([2]; dose 0.3 mg/kg intravenously, BCL 500 msec) was 190.0 ms, the “Percent change” value ([2]; dose 0.3 mg/kg, BCL 200 msec) was 18.6% and the “Percent change” value ([2]; dose 0.3 mg/kg, BCL 250 msec) was 12.6%. The “Percent change” value ([2]; dose 0.3 mg/kg, BCL 300 msec) was 13.7%, the “Percent change” value ([2]; dose 0.3 mg/kg, BCL 400 msec) was 10.1% and the “Percent change” value ([2]; dose 0.3 mg/kg, BCL 500 msec) was 9.8%. The “Measurement Value of ERP” value ([2]; dose 1 mg/kg intravenously, BCL 250 msec) was 183.3 ms, the “Measurement Value of ERP” value ([2]; dose 1 mg/kg intravenously, BCL 300 msec) was 195.0 ms and the “Measurement Value of ERP” value ([2]; dose 1 mg/kg intravenously, BCL 400 msec) was 203.3 ms. The “Measurement Value of ERP” value ([2]; dose 1 mg/kg intravenously, BCL 500 msec) was 208.3 ms, the “Percent change” value ([2]; dose 1 mg/kg, BCL 250 msec) was 37.9% and the “Percent change” value ([2]; dose 1 mg/kg, BCL 300 msec) was 33.2%. The “Percent change” value ([2]; dose 1 mg/kg, BCL 400 msec) was 23.4% and the “Percent change” value ([2]; dose 1 mg/kg, BCL 500 msec) was 20.6%.
